# Source: patent US20240270762A1, “PENICILLIN-BINDING PROTEIN INHIBITORS” (priority 2021, published 2024)
# Columns and labels:
# K. pneumoniae SI-117 = assay: microbe, parasite or virus in culture; type: cell-based; settings: Klebsiella pneumoniae, SI117, read-out: MIC K. pneumoniae SI-117
# N. gonorrhoeae WHO Z = assay: Liquid broth MIC in Fastidious broth; settings: Neisseria gonorrhoeae, read-out: Minimum Inhibitory Concentration (MIC), N. gonorrhoeae WHO Z
# N. gonorrhoeae FA1090 = assay: Liquid broth MIC in Fastidious broth; settings: Neisseria gonorrhoeae, FA1090, read-out: Minimum Inhibitory Concentration (MIC), N. gonorrhoeae FA 1090
# N. gonorrhoeae WHO K = assay: Liquid broth MIC in Fastidious broth; settings: Neisseria gonorrhoeae, read-out: Minimum Inhibitory Concentration (MIC), N. gonorrhoeae WHO K
# P. aeruginosa ATCC 35151 = assay: microbe, parasite or virus in culture; type: cell-based; settings: Pseudomonas aeruginosa, ATCC35151, read-out: MIC P. aeruginosa ATCC 35151
# N. gonorrhoeae WHO L = assay: Liquid broth MIC in Fastidious broth; settings: Neisseria gonorrhoeae, read-out: Minimum Inhibitory Concentration (MIC), N. gonorrhoeae WHO L
# [1] = molecular target: T1, PBP2 from Neisseria gonorrhoeae (FA19) (Neisseria gonorrhoeae, UniProt P08149); assay: Bocillin-FL fluorescence polarization competition binding, N. gonorrhoeae PBP2; settings: fluorescence polarization competition binding assay using Bocillin-FL, read-out: N. gonorrhoeae PBP2 Potency
# T1 construct: made in house
# Source text: To determine the ability of boronic acid-based test PBP inhibitors to bind Penicillin Binding Proteins (PBPs), Bocillin-FL (fluorescently-labeled penicillin V; ThermoFisher Scientific) was used in a fluorescence polarization (FP) competition binding assay to assess inhibitor binding to PBP3 from Escherichia coli (K-12), PBP3 from Pseudomonas aeruginosa (PAO1), PBP1a and PBP3 from Acinetobacter baumannii (ATCC 19606), and PBP2 from Neisseria gonorrhoeae (FA19). PBPs were cloned and purified as described previously (E. coli PBP3, King, D. T, et al., ACS Infectious Diseases 2015, 1, 175-184; P. aeruginosa PBP3, Han et. al., PNAS 2010, 107 (51), 22002-22007; A. baumannii PBPs, Penwell et. al., Antimicrob. Agents Chemother. 2015, 59 (3), 1680-1689; N. gonorrhoeae PBP2, Singh et. al., J. Biol. Chem. 2019, 294 (38), 14020-14032). To establish assay conditions for competition binding, enzyme titration/saturation binding experiments were initially performed. Bocillin-FL was prepared at 0.2 μM in a buffer comprised of 50 mM Hepes (pH 8.0), 300 mM NaCl and 10% (v/v) glycerol for reactions with E. coli, P. aeruginosa and N. gonorrhoeae PBPs, and 25 mM Tris (pH 8.0), 200 mM NaCl, 10% (v/v) glycerol and 0.005% (v/v) Tween 20 for reactions with A. baumannii PBPs. Saturation binding was performed by mixing 40 μl of PBP solutions ranging in concentrations from 0-24 μM with 40 μl of the 0.2 μM Bocillin-FL solution, in individual wells of a black 384-well microplate. FP was measured immediately upon mixing (Excitation, 490 nm; Emission, 520 nm; g-factor, 0.96), using a Cytation3 (BioTek) microplate reader and measured continuously for up to 120 minutes. […] The competition binding assay (80 μl final volume) was validated using beta-lactams and PBPs at final concentrations of: 1.5 μM for E. coli PBP3; 0.75 μM for P. aeruginosa PBP3; 1 μM for A. baumannii PBP1a; 0.2 μM for A. baumannii PBP3; and 0.25 μM for N. gonorrhoeae PBP2. Bocillin-FL was at 0.1 μM (0.05 μM with A. baumannii PBP1a) and beta-lactam concentrations ranged from 0-1,000 μM. E. coli PBP3 was incubated with increasing concentrations of ampicillin in a black 384-well microplate (Corning) for 30 minutes. P. aeruginosa PBP3 was incubated for 15 minutes with aztreonam, whereas A. baumannii PBP1a and PBP3 were incubated for 15 minutes with meropenem, and then Bocillin-FL was added followed immediately by the FP measurement for up to 60 minutes. […] The beta-lactam potency was reported as the concentration of beta-lactam required to reduce the amount of PBP bound-Bocillin-FL by 50% (EC50). […] Binding assays for boronic acid PBP inhibitors were performed in an identical fashion for the respective PBPs.
# E. coli 901C = assay: microbe, parasite or virus in culture; type: cell-based; settings: Escherichia coli, read-out: MIC E. coli 901C
# N. gonorrhoeae MS11 = assay: Liquid broth MIC in Fastidious broth; settings: Neisseria gonorrhoeae, MS11, read-out: Minimum Inhibitory Concentration (MIC), N. gonorrhoeae MS11
# E. coli D22 = assay: microbe, parasite or virus in culture; type: cell-based; settings: Escherichia coli, D22, read-out: MIC E. coli D22
# P. aeruginosa ATCC 27853 = assay: microbe, parasite or virus in culture; type: cell-based; settings: Pseudomonas aeruginosa, ATCC27853, read-out: MIC P. aeruginosa ATCC 27853
# E. coli AG100 = assay: microbe, parasite or virus in culture; type: cell-based; settings: Escherichia coli, AG100, read-out: MIC E. coli AG100
# N. gonorrhoeae WHO G = assay: Liquid broth MIC in Fastidious broth; settings: Neisseria gonorrhoeae, read-out: Minimum Inhibitory Concentration (MIC), N. gonorrhoeae WHO G
# K. pneumoniae UMM = assay: microbe, parasite or virus in culture; type: cell-based; settings: Klebsiella pneumoniae, read-out: MIC K. pneumoniae UMM
# T1 sequence (P08149 whole entry): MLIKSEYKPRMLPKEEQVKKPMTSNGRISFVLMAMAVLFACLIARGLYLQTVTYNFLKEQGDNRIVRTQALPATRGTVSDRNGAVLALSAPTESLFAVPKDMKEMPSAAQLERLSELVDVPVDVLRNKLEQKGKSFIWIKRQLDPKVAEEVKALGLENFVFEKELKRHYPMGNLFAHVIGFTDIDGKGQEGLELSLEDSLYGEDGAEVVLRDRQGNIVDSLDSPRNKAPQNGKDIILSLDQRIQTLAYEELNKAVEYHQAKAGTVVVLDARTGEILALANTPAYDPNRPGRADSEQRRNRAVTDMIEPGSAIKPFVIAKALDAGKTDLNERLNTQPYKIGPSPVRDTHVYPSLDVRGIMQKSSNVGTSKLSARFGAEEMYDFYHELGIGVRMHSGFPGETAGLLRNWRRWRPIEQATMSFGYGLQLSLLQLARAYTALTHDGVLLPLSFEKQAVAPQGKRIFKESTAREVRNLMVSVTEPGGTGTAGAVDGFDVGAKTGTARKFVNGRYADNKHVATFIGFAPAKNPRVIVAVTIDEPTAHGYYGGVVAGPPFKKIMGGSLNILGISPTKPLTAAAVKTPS
compound,measurement,setting,value
"CS(=O)(=O)N1CCN(C(=O)N[C@@H](C(=O)N[C@H]2Cc3ccc(F)c(C(=O)O)c3OB2O)c2ccc(P(=O)(O)O)c(F)c2)C1=O (single isomer, unassigned) [Example 19]",MIC,K. pneumoniae SI-117,> 128 µg/mL
same,MIC,N. gonorrhoeae WHO Z,< 1 µg/mL
same,MIC,N. gonorrhoeae FA1090,< 1 µg/mL
same,MIC,N. gonorrhoeae WHO K,< 1 µg/mL
same,MIC,P. aeruginosa ATCC 35151,2 to 4 µg/mL
same,MIC,N. gonorrhoeae WHO L,< 1 µg/mL
same,EC50,[1],< 10 µM
same,MIC,E. coli 901C,< 1 µg/mL
same,MIC,N. gonorrhoeae MS11,< 1 µg/mL
same,MIC,E. coli D22,8 to 16 µg/mL
same,MIC,P. aeruginosa ATCC 27853,> 128 µg/mL
same,MIC,E. coli AG100,> 128 µg/mL
same,MIC,N. gonorrhoeae WHO G,< 1 µg/mL
same,MIC,K. pneumoniae UMM,> 128 µg/mL
"CCN1CCN(C(=O)N[C@@H](C(=O)N[C@H]2Cc3cccc(C(=O)O)c3OB2O)c2ccc(P(C)(=O)O)cc2)C(=O)C1=O (single isomer, unassigned) [Example 47]",MIC,K. pneumoniae SI-117,> 128 µg/mL
same,MIC,N. gonorrhoeae WHO Z,1 to 2 µg/mL
same,MIC,N. gonorrhoeae FA1090,< 1 µg/mL
same,MIC,N. gonorrhoeae WHO K,4 to 8 µg/mL
same,MIC,P. aeruginosa ATCC 35151,< 1 µg/mL
same,MIC,N. gonorrhoeae WHO L,4 to 8 µg/mL
same,EC50,[1],< 10 µM
same,MIC,E. coli 901C,< 1 µg/mL
same,MIC,N. gonorrhoeae MS11,< 1 µg/mL
same,MIC,E. coli D22,2 to 4 µg/mL
same,MIC,P. aeruginosa ATCC 27853,> 128 µg/mL
same,MIC,E. coli AG100,8 to 16 µg/mL
same,MIC,N. gonorrhoeae WHO G,< 1 µg/mL
same,MIC,K. pneumoniae UMM,> 128 µg/mL
"N[C@@H](C(=O)N[C@H]1Cc2cccc(C(=O)O)c2OB1O)c1ccc(P(=O)(O)O)cc1 (single isomer, unassigned) [Example 171]",MIC,K. pneumoniae SI-117,> 128 µg/mL
same,MIC,N. gonorrhoeae WHO Z,> 64 µg/mL
same,MIC,N. gonorrhoeae FA1090,> 64 µg/mL
same,MIC,N. gonorrhoeae WHO K,> 64 µg/mL
same,MIC,P. aeruginosa ATCC 35151,> 128 µg/mL
same,MIC,N. gonorrhoeae WHO L,> 64 µg/mL
same,EC50,[1],10 to 50 µM
same,MIC,E. coli 901C,> 128 µg/mL
same,MIC,N. gonorrhoeae MS11,> 64 µg/mL
same,MIC,E. coli D22,> 128 µg/mL
same,MIC,P. aeruginosa ATCC 27853,> 128 µg/mL
same,MIC,E. coli AG100,> 128 µg/mL
same,MIC,N. gonorrhoeae WHO G,> 64 µg/mL
same,MIC,K. pneumoniae UMM,> 128 µg/mL
"O=C(O)c1cccc2c1OB(O)[C@@H](NC(=O)[C@@H](NC(=O)c1ccn[nH]c1=O)c1ccc(P(=O)(O)O)cc1)C2 (single isomer, unassigned) [Example 177]",MIC,K. pneumoniae SI-117,> 128 µg/mL
same,MIC,N. gonorrhoeae WHO Z,4 to 8 µg/mL
same,MIC,N. gonorrhoeae FA1090,< 1 µg/mL
same,MIC,N. gonorrhoeae WHO K,4 to 8 µg/mL
same,MIC,P. aeruginosa ATCC 35151,2 to 4 µg/mL
same,MIC,N. gonorrhoeae WHO L,4 to 8 µg/mL
same,EC50,[1],< 10 µM
same,MIC,E. coli 901C,2 to 4 µg/mL
same,MIC,N. gonorrhoeae MS11,1 to 2 µg/mL
same,MIC,E. coli D22,32 to 64 µg/mL
same,MIC,P. aeruginosa ATCC 27853,> 128 µg/mL
same,MIC,E. coli AG100,> 128 µg/mL
same,MIC,N. gonorrhoeae WHO G,< 1 µg/mL
same,MIC,K. pneumoniae UMM,> 128 µg/mL
"O=C(O)c1cccc2c1OB(O)[C@@H](NC(=O)[C@H](NC(=O)c1ccn[nH]c1=O)c1ccc(P(=O)(O)O)cc1)C2 (single isomer, unassigned) [Example 178]",MIC,K. pneumoniae SI-117,> 128 µg/mL
same,MIC,N. gonorrhoeae WHO Z,< 1 µg/mL
same,MIC,N. gonorrhoeae FA1090,< 1 µg/mL
same,MIC,N. gonorrhoeae WHO K,1 to 2 µg/mL
same,MIC,P. aeruginosa ATCC 35151,< 1 µg/mL
same,MIC,N. gonorrhoeae WHO L,1 to 2 µg/mL
same,EC50,[1],< 10 µM
same,MIC,E. coli 901C,< 1 µg/mL
same,MIC,N. gonorrhoeae MS11,< 1 µg/mL
same,MIC,E. coli D22,2 to 4 µg/mL
same,MIC,P. aeruginosa ATCC 27853,32 to 64 µg/mL
same,MIC,E. coli AG100,> 128 µg/mL
same,MIC,N. gonorrhoeae WHO G,< 1 µg/mL
same,MIC,K. pneumoniae UMM,32 to 64 µg/mL
"Cn1cccc(C(=O)N[C@@H](C(=O)N[C@H]2Cc3cccc(C(=O)O)c3OB2O)c2ccc(P(=O)(O)O)cc2)c1=O (single isomer, unassigned) [Example 182]",MIC,K. pneumoniae SI-117,> 128 µg/mL
same,MIC,N. gonorrhoeae WHO Z,1 to 2 µg/mL
same,MIC,N. gonorrhoeae FA1090,< 1 µg/mL
same,MIC,N. gonorrhoeae WHO K,4 to 8 µg/mL
same,MIC,P. aeruginosa ATCC 35151,< 1 µg/mL
same,MIC,N. gonorrhoeae WHO L,16 to 32 µg/mL
same,EC50,[1],< 10 µM
same,MIC,E. coli 901C,2 to 4 µg/mL
same,MIC,N. gonorrhoeae MS11,1 to 2 µg/mL
same,MIC,E. coli D22,8 to 16 µg/mL
same,MIC,P. aeruginosa ATCC 27853,> 128 µg/mL
same,MIC,E. coli AG100,> 128 µg/mL
same,MIC,N. gonorrhoeae WHO G,< 1 µg/mL
same,MIC,K. pneumoniae UMM,> 128 µg/mL
"O=C(N[C@H](C(=O)N[C@H]1Cc2cccc(C(=O)O)c2OB1O)c1ccc(P(=O)(O)O)cc1)c1ccc(C(F)(F)F)cn1 (single isomer, unassigned) [Example 192]",MIC,K. pneumoniae SI-117,> 128 µg/mL
same,MIC,N. gonorrhoeae WHO Z,1 to 2 µg/mL
same,MIC,N. gonorrhoeae FA1090,< 1 µg/mL
same,MIC,N. gonorrhoeae WHO K,4 to 8 µg/mL
same,MIC,P. aeruginosa ATCC 35151,8 to 16 µg/mL
same,MIC,N. gonorrhoeae WHO L,4 to 8 µg/mL
same,EC50,[1],< 10 µM
same,MIC,E. coli 901C,< 1 µg/mL
same,MIC,N. gonorrhoeae MS11,1 to 2 µg/mL
same,MIC,E. coli D22,8 to 16 µg/mL
same,MIC,P. aeruginosa ATCC 27853,> 128 µg/mL
same,MIC,E. coli AG100,> 128 µg/mL
same,MIC,N. gonorrhoeae WHO G,1 to 2 µg/mL
same,MIC,K. pneumoniae UMM,> 128 µg/mL
"O=C(N[C@@H](C(=O)N[C@H]1Cc2cccc(C(=O)O)c2OB1O)c1ccc(P(=O)(O)O)cc1)c1ccc(C(F)(F)F)cn1 (single isomer, unassigned) [Example 193]",MIC,K. pneumoniae SI-117,> 128 µg/mL
same,MIC,N. gonorrhoeae WHO Z,< 1 µg/mL
same,MIC,N. gonorrhoeae FA1090,< 1 µg/mL
same,MIC,N. gonorrhoeae WHO K,1 to 2 µg/mL
same,MIC,P. aeruginosa ATCC 35151,2 to 4 µg/mL
same,MIC,N. gonorrhoeae WHO L,4 to 8 µg/mL
same,EC50,[1],< 10 µM
same,MIC,E. coli 901C,< 1 µg/mL
same,MIC,N. gonorrhoeae MS11,< 1 µg/mL
same,MIC,E. coli D22,2 to 4 µg/mL
same,MIC,P. aeruginosa ATCC 27853,> 128 µg/mL
same,MIC,E. coli AG100,32 to 64 µg/mL
same,MIC,N. gonorrhoeae WHO G,< 1 µg/mL
same,MIC,K. pneumoniae UMM,> 128 µg/mL
